The text below walks through data of patent publication US11684606B2, “Methods of treating generalized pustular psoriasis with an antagonist of CCR6 or CXCR2” (CHEMOCENTRYX, INC., priority 2018, dated 2023).

One experiment deals with T1, mCCR1 (Mus musculus, UniProt P51675).
T1 construct: endogenous in cells; host or cells: mouse WEHI-274.1 cells (from the earlier reading's assay name)
T1 sequence (P51675 1-355): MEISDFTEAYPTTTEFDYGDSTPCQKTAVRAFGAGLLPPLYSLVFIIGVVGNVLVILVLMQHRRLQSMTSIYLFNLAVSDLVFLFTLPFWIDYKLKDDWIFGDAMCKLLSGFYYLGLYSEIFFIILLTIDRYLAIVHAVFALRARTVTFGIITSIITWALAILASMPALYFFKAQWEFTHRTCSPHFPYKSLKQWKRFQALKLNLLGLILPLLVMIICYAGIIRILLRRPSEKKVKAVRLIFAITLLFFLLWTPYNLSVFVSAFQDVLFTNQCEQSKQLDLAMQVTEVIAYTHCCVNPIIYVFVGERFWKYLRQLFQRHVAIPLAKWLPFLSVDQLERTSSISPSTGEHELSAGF
Briefly: Chemotaxis of mouse WEHI-274.1 cells to mCCL3. The settings on record: in serum; unit inferred. It is filed as cell-based.

The next experiment addresses T2, mCCR6 (Mus musculus, UniProt O54689).
T2 construct: expressed in transfected cells; host or cells: BaF3 cells
T2 sequence (O54689 1-367): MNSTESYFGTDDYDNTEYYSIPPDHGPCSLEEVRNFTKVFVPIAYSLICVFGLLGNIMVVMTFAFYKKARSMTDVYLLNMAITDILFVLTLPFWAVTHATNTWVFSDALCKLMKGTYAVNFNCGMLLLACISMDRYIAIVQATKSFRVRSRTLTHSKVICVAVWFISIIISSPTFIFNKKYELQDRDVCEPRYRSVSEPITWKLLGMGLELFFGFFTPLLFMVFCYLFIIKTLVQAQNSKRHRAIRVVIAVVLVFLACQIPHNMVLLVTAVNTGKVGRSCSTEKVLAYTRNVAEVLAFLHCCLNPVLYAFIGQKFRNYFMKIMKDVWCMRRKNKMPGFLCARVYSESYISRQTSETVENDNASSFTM
Description: In vitro inhibition of chemotaxis, mCCR6-transfected BaF3 cells to mCCL20. In kind it is cell-based. Particulars: in 100% serum. As to the method:
For in vitro determination of chemokine receptor inhibitor activity, Compound 1.136 was dissolved in DMSO to generate a stock concentration of 10 mM that was further diluted in chemotaxis migration buffer (HBSS, 1% BSA, 1% HEPES) to create a 10-point inhibitor gradient ranging from 100 nM-0.01 nM. Migration assay was then run in 100% mouse serum in response to rmCCL20 for CCR6 activity or rmCXCL1 for CXCR2 activity using ChemoTx plates (Neuroprobe, Gaithersburg Md.) and assessed by fluorescence staining of migrated cells with CyQuant (Thermo Fisher).

Another experiment concerns the target T3, mCCR2 (Mus musculus, UniProt P51683).
T3 construct: endogenous in cells; host or cells: mouse bone marrow cells (from the earlier reading's assay name)
Description: Chemotaxis of mouse bone marrow cells to mCCL2. It is filed as cell-based. The settings on record: in serum; unit inferred.

For experiment [1], the system named is CD4 T cells, neutrophils and inflammatory dendritic cells within IL-36-treated skin. Description: Flow cytometry of leukocytes accumulating in IL-36-treated skin. It is filed as in vivo, mouse. The settings on record: after 4 daily IL-36α ear injections; Compound 1.136 90 mg/kg/day s.c.; α-IL-17RA 200 μg/mouse/day i.p.; 90 mg/kg/day. The protocol: For in vivo dosing, mice were dosed subcutaneously with Compound 1.136 once daily (s.c. q.d. in 1% HPMC) at 90 mg/kg unless stated otherwise, starting at day 0 of a study. The in vivo dose was predicted based on in vitro potency and the pharmacokinetic response to a single dose in mice. The minimum antagonist concentration (at trough) to fully cover a gradient-sensing chemoattractant receptor has been determined to correspond with the IC90 concentration (Schall, T. J., and A. E. Proudfoot. 2011. Overcoming hurdles in developing successful drugs targeting chemokine receptors. Nat Rev Immunol 11: 355-363).
Flow cytometry of leukocytes. Ears or excised skin samples were digested in collagenase A and 1 U/ml DNAse I with agitation for 30 min at 37° C. Cells were then dislodged from skin, filtered through a […] sieve, washed and re-suspended in FACS buffer (PBS with 10% FBS) for analysis.
Directly conjugated Monoclonal antibodies were from R&D Systems (Minneapolis, Minn.), BioLegend (San Diego, Calif.), or eBioscience/ThermoFisher (San Diego, Calif.). CD45.2 (104) in AlexaFluor488, Ly6C (HK1.4) in PE, CD90.2 (30-H12) in Per CP-Cy5.5, TCRVγ4 (UC3-10A6) in PE-Cy7, TCRβ (H57-597) in APC, CD4 (GK1.5) in APC-eFluor-780, TCRγδ (GL3) in BV-421, LIVE/DEAD fixable Aqua stain (Molecular Probes, Eugene, Oreg.), CD11c (N418) in BV650, Ly6G (1A4) in BV711 and CD11b (M1/70) in BV785. Flow cytometry data were acquired with a Fortessa (BD Biosciences) cytometer and analyzed using FlowJo v10.2
Background: Flow cytometry measures light scatter and fluorescence of single cells or particles in a stream.

A further experiment has as its target T4, mCCR4 (Mus musculus, UniProt P51680).
T4 construct: expressed in transfected cells; host or cells: BaF3 cells (from the earlier reading's assay name)
T4 sequence (P51680 1-360): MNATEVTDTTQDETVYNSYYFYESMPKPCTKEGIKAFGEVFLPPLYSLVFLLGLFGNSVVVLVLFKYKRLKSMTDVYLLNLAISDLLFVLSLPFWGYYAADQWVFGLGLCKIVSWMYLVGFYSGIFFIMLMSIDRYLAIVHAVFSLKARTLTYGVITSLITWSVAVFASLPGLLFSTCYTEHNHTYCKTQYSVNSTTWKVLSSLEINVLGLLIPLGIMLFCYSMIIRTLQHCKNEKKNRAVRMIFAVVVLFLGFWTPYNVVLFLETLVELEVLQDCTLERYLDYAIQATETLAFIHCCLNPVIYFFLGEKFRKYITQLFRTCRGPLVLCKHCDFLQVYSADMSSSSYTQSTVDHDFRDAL
Description: Chemotaxis of mCCR4-transfected BaF3 cells to mCCL22. It is filed as cell-based. Particulars: A2 value, unit not given.

In brackets after ≈: the same amount, converted by molar mass. Entries after “also recorded” stand apart in the source; their conditions may differ. Where only a bound is given, the exact number is not on record here.

A word on the IC50: it is the concentration needed to halve the response being measured. As usually defined, the IC90 is the concentration needed for an effect of 90%.

T3 sequence (P51683 whole entry): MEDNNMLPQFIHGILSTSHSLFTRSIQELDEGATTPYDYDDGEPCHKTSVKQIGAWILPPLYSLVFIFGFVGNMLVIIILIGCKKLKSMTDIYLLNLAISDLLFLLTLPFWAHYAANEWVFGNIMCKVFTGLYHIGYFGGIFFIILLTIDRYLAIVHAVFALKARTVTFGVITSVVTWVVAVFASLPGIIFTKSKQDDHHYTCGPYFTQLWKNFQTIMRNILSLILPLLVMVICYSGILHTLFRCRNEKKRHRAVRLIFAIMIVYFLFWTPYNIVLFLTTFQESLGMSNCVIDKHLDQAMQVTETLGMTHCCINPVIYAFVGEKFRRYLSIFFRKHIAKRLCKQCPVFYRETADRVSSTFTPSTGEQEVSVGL

`CCC(C)(C)[C@@H](Nc1c(Nc2c(F)ccc3c2C(=O)N[C@H]3C)c(=O)c1=O)c1ccc(C)o1` [Compound 1.136]: the IC50 was more than 10 µM at mCCR1; 0.01 µM at mCCR6 (read-out: IC50 on mouse CCR6, in vitro inhibition of chemotaxis); more than 10 µM on mCCR2. Moreover, the IC90 on mCCR6 (BaF3, read-out: IC90 for CCR6 inhibition) was 0.045 µg/mL (≈ 0.102 µM). Also, the “Accumulation of CD4+ T cells within IL-36-treated skin” value in experiment [1] is “significantly reduced the accumulation; also recorded: significantly reduces accumulation”. In addition, in experiment [1], the “Accumulation of inflammatory dendritic cells (iDC) within IL-36-treated skin” value is “significantly reduced the accumulation; also recorded: significantly reduces accumulation”. For the same compound, the “Accumulation of neutrophils within IL-36-treated skin” value in experiment [1] is “significantly reduced the accumulation; also recorded: significantly reduces accumulation”. The “A2 for chemotaxis of mCCR4-transfected BaF3 cells to mCCL22 in serum” value at mCCR4 is >10,000.
